As a reminder, the IC50 is the midpoint of a concentration-inhibition curve. Read a high IC50 as lower potency.

Each structure is given as a SMILES string.

The target of the experiment is T1, Neutrophil elastase (Homo sapiens, UniProt P08246).
T1 sequence (P08246 whole entry): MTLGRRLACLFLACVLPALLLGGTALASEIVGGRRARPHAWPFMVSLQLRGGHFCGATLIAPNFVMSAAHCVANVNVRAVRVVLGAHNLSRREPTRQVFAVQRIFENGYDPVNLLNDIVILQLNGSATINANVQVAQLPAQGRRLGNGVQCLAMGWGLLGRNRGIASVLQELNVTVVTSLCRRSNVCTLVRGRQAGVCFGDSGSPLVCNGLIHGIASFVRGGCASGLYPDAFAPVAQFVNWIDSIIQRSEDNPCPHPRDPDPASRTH
As to the kind of experiment: Inhibition of human neutrophil elastase.

With `O=C(O[C@@H]1Cc2c(O)cc(O)cc2O[C@@H]1c1cc(O)c(O)c(O)c1)c1cc(O)c(O)c(O)c1` [EPIGALOCATECHIN GALLATE], it took 12.8 µM to reach half-maximal inhibition (IC50).
